Like-named read-outs stand apart in the source and are kept apart here.
Key:
[1] = target: T1, COX‐2 (Mus musculus, UniProt Q05769); assay: COX‐2 inhibition of PGE2 production, LPS-stimulated J774 murine macrophage assay; assay type: cell-based; settings: for IC50: J774 cells, LPS 10 μg/mL 24 h, PGE2 by EIA, mean of three experiments; for COX‐1/COX‐2 [SI]: selectivity index IC50(COX‐1)/IC50(COX‐2)
T1 construct: endogenous in cells; host or cells: J774 murine monocyte/macrophage cell line, LPS-stimulated
T1 sequence (Q05769 18-604): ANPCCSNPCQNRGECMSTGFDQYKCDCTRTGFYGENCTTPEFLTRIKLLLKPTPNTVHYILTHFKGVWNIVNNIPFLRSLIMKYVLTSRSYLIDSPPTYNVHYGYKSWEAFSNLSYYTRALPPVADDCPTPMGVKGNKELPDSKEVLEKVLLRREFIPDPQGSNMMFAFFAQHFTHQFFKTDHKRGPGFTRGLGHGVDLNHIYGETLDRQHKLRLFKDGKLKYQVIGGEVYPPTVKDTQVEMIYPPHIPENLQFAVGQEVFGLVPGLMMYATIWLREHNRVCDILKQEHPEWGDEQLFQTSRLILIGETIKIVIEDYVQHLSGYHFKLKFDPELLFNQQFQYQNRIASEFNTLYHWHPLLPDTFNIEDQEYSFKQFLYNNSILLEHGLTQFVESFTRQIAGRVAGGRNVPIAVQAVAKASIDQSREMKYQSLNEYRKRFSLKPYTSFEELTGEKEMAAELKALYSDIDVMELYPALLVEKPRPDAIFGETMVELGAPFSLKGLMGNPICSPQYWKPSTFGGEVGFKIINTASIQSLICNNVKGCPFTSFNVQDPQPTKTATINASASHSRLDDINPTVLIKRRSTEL
Description: This required that hydrolysis was mandatory to obtain the possible release of bioactive compounds from the macromolecular ester prodrugs. […] All these considerations led us to consider the importance of the possible hydrolysis process, which could lead to release the bioactive compounds from the macromolecular ester prodrug 13a.
(§1) The cell line was grown in DMEM supplemented with 2 mM glutamine, 25 mM HEPES, 100 units mL^–1 penicillin, 100 μg mL^–1 streptomycin, 10% fetal bovine serum (FBS), and 1.2% sodium pyruvate. Cells were plated in 24‐well culture plates at a density of 2.5 × 10^5 cells mL^–1 and allowed to adhere at 37 °C in 5% CO2 for 2 h. Immediately before the experiments, the culture medium was replaced with fresh medium, and cells were stimulated as previously described.^[ [64] ^] The evaluation of COX‐1 inhibitory activity was achieved by pretreating cells with test compounds (10 μM) for 15 min and then incubating them at 37 °C for 30 min with 15 μM arachidonic acid to activate the constitutive COX. At the end of the incubation, the supernatants were collected to measure PGE2 levels by an enzyme immuno‐assay (EIA). To evaluate COX‐2 activity, cells were stimulated for 24 h with Escherichia coli lipopolysaccharide (LPS, 10 μg mL^–1) to induce COX‐2, in the absence or presence of test compounds (0.001–10 μM). The supernatants were collected for the measurement of PGE2 by means of EIA. Celecoxib was utilized as a reference compound for the selectivity index. Triplicate wells were used for the various treatment conditions in the cell culture assay throughout the experiments. Results are expressed as the mean of three experiments of the % inhibition of PGE2 production by test compounds with respect to control samples. Data fit was obtained using the sigmoidal dose–response equation (variable slope) (GraphPad software). The IC50 values were calculated by the GraphPad Instat program (GraphPad software).

[2] = target: T2, COX‐1 (Mus musculus, UniProt P22437); assay: COX‐1 inhibition of PGE2 production, arachidonic acid-stimulated J774 murine macrophage assay; assay type: cell-based; settings: J774 cells, 15 μM arachidonic acid, PGE2 by EIA, mean of three experiments
T2 construct: endogenous in cells; host or cells: J774 murine monocyte/macrophage cell line
T2 sequence (P22437 27-602): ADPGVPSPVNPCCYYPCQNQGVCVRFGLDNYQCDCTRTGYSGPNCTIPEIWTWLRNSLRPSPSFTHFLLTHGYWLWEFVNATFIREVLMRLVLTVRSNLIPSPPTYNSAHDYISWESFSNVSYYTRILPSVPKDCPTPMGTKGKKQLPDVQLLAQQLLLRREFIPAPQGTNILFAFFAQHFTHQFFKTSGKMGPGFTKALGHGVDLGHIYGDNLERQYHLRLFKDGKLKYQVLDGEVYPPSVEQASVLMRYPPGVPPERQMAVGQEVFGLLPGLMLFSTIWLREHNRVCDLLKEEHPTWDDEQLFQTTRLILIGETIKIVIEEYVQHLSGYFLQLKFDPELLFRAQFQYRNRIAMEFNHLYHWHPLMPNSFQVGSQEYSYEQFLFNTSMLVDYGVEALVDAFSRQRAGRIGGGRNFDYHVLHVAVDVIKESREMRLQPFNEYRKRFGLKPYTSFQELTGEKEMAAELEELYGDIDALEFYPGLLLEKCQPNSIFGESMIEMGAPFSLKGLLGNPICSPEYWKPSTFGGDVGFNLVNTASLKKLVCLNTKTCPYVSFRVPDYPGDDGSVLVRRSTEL
Description: All tested compounds didn’t inhibit the production of PGE2 via COX‐1 in AA‐stimulated J774 macrophages.
as §1

[3] = target: T2, COX‐1; settings: J774 murine macrophage assay, cited from earlier work
[4] = target: T1, COX‐2; settings: ref [24], cited from earlier work

Cc1c(CCOCCOCCOCCOCCOCCOCCN=[N+]=[N-])cc(-c2ccc(S(C)(=O)=O)cc2)n1-c1ccc(F)cc1 [Compound 19, 3‐(20‐Azido‐3,6,9,12,15,18‐hexaoxaicosyl)‐1‐(4‐fluorophenyl)‐2‐methyl‐5‐(4‐(methylsulfonyl)phenyl)‐1H‐pyrrole]
IC50 [1]: 500 nM
COX‐1/COX‐2 [SI] [1]: >20
IC50 [2]: > 10000 nM

COc1cc(/C=C/C(=O)O)ccc1OCc1cn(CCOCCOCCOCCOCCOCCOCCC(=O)OCCOCCc2cc(-c3ccc(S(C)(=O)=O)cc3)n(-c3ccc(F)cc3)c2C)nn1 [Compound 13b, (E)‐3‐(4‐((1‐(27‐(1‐(4‐Fluorophenyl)‐2‐methyl‐5‐(4‐(methylsulfonyl)phenyl)‐1H‐pyrrol‐3‐yl)‐21‐oxo‐3,6,9,12,15,18,22,25‐octaoxaheptacosyl)‐1H‐1,2,3‐triazol‐4‐yl)methoxy)‐3‐methoxyphenyl)acrylic acid]
IC50 [1]: 50 nM
COX‐1/COX‐2 [SI] [1]: >200
IC50 [2]: > 10000 nM

Cc1c(CCO)cc(-c2ccc(S(C)(=O)=O)cc2)n1-c1ccc(F)cc1 [Compound 21]
IC50 ([3]; ref [24]): > 10000 nM
IC50 ([4]; J774 murine macrophage assay): 70 nM
COX‐1/COX‐2 [SI] ([4]; selectivity index IC50(COX‐1)/IC50(COX‐2)): >142.8

COc1cc(/C=C/C(=O)O)ccc1OCc1cn(CCOCCOCCOCCOCCOCCOCCc2cc(-c3ccc(S(C)(=O)=O)cc3)n(-c3ccc(F)cc3)c2C)nn1 [Compound 12b, (E)‐3‐(4‐((1‐(20‐(1‐(4‐Fluorophenyl)‐2‐methyl‐5‐(4‐(methylsulfonyl)phenyl)‐1H‐pyrrol‐3‐yl)‐3,6,9,12,15,18‐hexaoxaicosyl)‐1H‐1,2,3‐triazol‐4‐yl)methoxy)‐3‐methoxyphenyl)acrylic acid]
IC50 [1]: > 10000 nM
inhibition of PGE2 production via COX‐2 (in words) ([1]; LPS‐stimulated macrophages): completely devoid of COX‐2 inhibitory activity
IC50 [2]: > 10000 nM

Cc1c(CCOCCOC(=O)CCOCCOCCOCCOCCOCCOCCN=[N+]=[N-])cc(-c2ccc(S(C)(=O)=O)cc2)n1-c1ccc(F)cc1 [Compound 14, 2‐(2‐(1‐(4‐Fluorophenyl)‐2‐methyl‐5‐(4‐(methylsulfonyl)phenyl)‐1H‐pyrrol‐3‐yl)ethoxy)ethyl 1‐azido‐3,6,9,12,15,18‐hexaoxahenicosan‐21‐oate]
IC50 [1]: 15 nM
COX‐1/COX‐2 [SI] [1]: >666.7
IC50 [2]: > 10000 nM

Cc1c(CCOCCO)cc(-c2ccc(S(C)(=O)=O)cc2)n1-c1ccc(F)cc1 [Compound 7b]
IC50 ([3]; ref [27]): > 10000 nM
